Entries after “also recorded” stand apart in the source; their conditions may differ.
What was measured:
[1] = system: muscle stem cells (MuSCs); assay: MuSC proliferation in culture, cell number count (hemocytometer); format: cell-based, mouse
Method: Muscle stem cell culture, treatment and lentiviral infection: Following isolation, we resuspended MuSCs in myogenic cell culture medium containing DMEM/F10 (50:50), 15% FBS, 2.5 ng ml^−1 fibroblast growth factor-2 (FGF-2 also known as bFGF) and 1% penicillin-streptomycin. We seeded MuSC suspensions at a density of 500 cells per cm^2 surface area. We maintained cell cultures at 37° C. in 5% CO2 and changed medium daily. For PGE2, 15-PGDH inhibitor and EP4 receptor antagonist treatment studies, we added 1-200 ng/ml Prostaglandin E2 (Cayman Chemical) (unless specified in the figure legends, 10 ng/ml was the standard concentration used), and/or 1 μM EP4 antagonist (ONO-AE3-208, Cayman Chemical), or 1 μM 15-PGDH inhibitor (SW033291, Cayman Chemical) to the MuSCs cultured on collagen coated dishes for the first 24 h. The cells were then trypsinized and cells reseeded onto hydrogels for an additional 6 days of culture. All treatments were compared to their solvent (DMSO) vehicle control. For stripped serum assays, we resuspended isolated MuSCs in medium containing DMEM/F10 (50:50), 15% charcoal stripped FBS (Gibco, cat #12676011), 2.5 ng ml^−1 bFGF and 1% penicillin-streptomycin. […]
Proliferation assays: To assay proliferation, we used three different assays (hemocytometer, VisionBlue, and EdU). […] For hemocytometer cell number count, we collected cells at indicated timepoints by incubation with 0.5% trypsin in PBS for 5 min at 37° C. and quantified them using a hemocytometer at least 3 times. Additionally, we used the VisionBlue Quick Cell Viability Fluorometric Assay Kit (BioVision, catalog #K303) as a readout for cell growth in culture. Briefly, we incubated MuSCs with 10% VisionBlue in culture medium for 3 h, and measured fluorescence intensity on a fluorescence plate reader (Infinite M1000 PRO, Tecan) at Ex=530-570 nm, Em=590-620 nm. […] We quantified EdU positive cells using the MetaMorph Image Analysis software (Molecular Devices). Data analyses were blinded, where researchers performing cell scoring were unaware of the treatment condition given to sample groups analyzed. […]

[2] = system: MuSCs; assay: Clonal MuSC proliferation by time-lapse microscopy (38 h); format: cell-based, mouse; settings: PGE2 24 hr
Method: We assayed clonal muscle stem cell proliferation by time-lapse microscopy as previously described (26, 27). […] Cells were then trypsinized and reseeded at a density of 500 cells per cm^2 surface area in hydrogel microwells with 600 μm diameter. For time-lapse microscopy we monitored cell proliferation for those wells with single cells for 38 h days after seeding and recorded images every 3 min at 10× magnification using a PALM/AxioObserver Z1 system (Carl Zeiss MicroImaging) with a custom environmental control chamber and motorized stage. We analyzed time-lapse image sequences using the Baxter Algorithms for Cell Tracking and Lineage Reconstruction to identify and track single cells and generate lineage trees (26-28, 51, 52). Viable and dead cells were distinguished in time-lapse sequences based on phase-contrast boundary and motility maintenance or loss, respectively. […] The data analysis was blinded. The researchers performing the imaging acquisition and scoring were unaware of the treatment condition given to sample groups analyzed. Clonal muscle stem cell proliferation and fate analyses: […] Cells were then trypsinized and reseeded at a density of 500 cells per cm^2 surface area in hydrogel microwells with 600 μm diameter. For time-lapse microscopy we monitored cell proliferation for those wells with single cells for 38 h days after seeding and recorded images every 3 min at 10× magnification using a PALM/AxioObserver Z1 system (Carl Zeiss MicroImaging) with a custom environmental control chamber and motorized stage. We analyzed time-lapse image sequences using the Baxter Algorithms for Cell Tracking and Lineage Reconstruction to identify and track single cells and generate lineage trees (26-28, 51, 52). Viable and dead cells were distinguished in time-lapse sequences based on phase-contrast boundary and motility maintenance or loss, respectively. […] The data analysis was blinded. The researchers performing the imaging acquisition and scoring were unaware of the treatment condition given to sample groups analyzed.

SMILES: CCCCC[C@H](O)/C=C/[C@H]1[C@H](O)CC(=O)[C@@H]1C/C=C\CCCC(=O)O [PGE2, prostaglandin E2]
- MuSC proliferation in medium with charcoal stripped serum ([1]; PGE2 10 ng/ml added to stripped serum medium, 7 days on hydrogels): divided upon addition of PGE2; also recorded: rescued this block in proliferation
- increase in the number of MuSCs relative to controls ([1]; PGE2 10 ng/ml, acute 1-day exposure, counted one week later, young MuSCs on hydrogel): 6 fold
- cell sizes of tracked MuSCs [2]: increase in the incidence of larger cell sizes
- total cells at the end of the 38 h timespan vs vehicle [2]: almost twice the number of total cells
- entry into mitosis post-plating ([2]; 38 h tracking): entry into mitosis is accelerated
- cumulative cell divisions and cell numbers of MuSC clones ([2]; 38 h tracking, young MuSCs): marked increase in cumulative cell divisions and cell numbers
